# “And” between values parts separate entries of the source, which are not always exact repeats. Identical values can stand only once. Toxic doses and inconclusive results are not listed.
# System: P388 leukemia ip, CD2F1 mice, survival T/C
# Test: NCI In Vivo Anticancer Drug Screen. Data for tumor model P388 Leukemia (intraperitoneal) in CD2F1 (CDF1) mice
# Details: endpoint: median survival time, higher = longer survival
# Outline: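 Mice carrying the transplanted tumor received test compound or vehicle. Survival was recorded in each group, and the value is the treated-group measurement divided by that of the vehicle-treated control group.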
# [1] = dose: 50.0 mg/kg/injection, schedule: Q01DX009 (ip), vehicle: saline
# [2] = dose: 50.0 mg/kg/injection, schedule: Q01DX005 (ip), vehicle: Klucel (hydroxypropylcellulose) (HPC)
# [3] = dose: 100.0 mg/kg/injection, schedule: Q01DX005 (ip), vehicle: Klucel (hydroxypropylcellulose) (HPC)
# [4] = dose: 200.0 mg/kg/injection, schedule: Q01DX005 (ip), vehicle: Klucel (hydroxypropylcellulose) (HPC)
# [5] = dose: 12.5 mg/kg/injection, schedule: Q01DX009 (ip), vehicle: Klucel (hydroxypropylcellulose) (HPC)
# [6] = dose: 25.0 mg/kg/injection, schedule: Q01DX009 (ip), vehicle: Klucel (hydroxypropylcellulose) (HPC)
# [7] = dose: 50.0 mg/kg/injection, schedule: Q01DX009 (ip), vehicle: Klucel (hydroxypropylcellulose) (HPC)
# [8] = dose: 50.0 mg/kg/injection, schedule: Q04DX003 (ip), vehicle: saline with Tween-80
# [9] = dose: 100.0 mg/kg/injection, schedule: Q04DX003 (ip), vehicle: saline with Tween-80
# [10] = dose: 60.0 mg/kg/injection, schedule: Q01DX005 (ip), vehicle: saline with Tween-80
# [11] = dose: 120.0 mg/kg/injection, schedule: Q01DX005 (ip), vehicle: saline with Tween-80
structure (smiles),measurement,setting,value
CC(=O)NNC(=O)C(Cl)Cl,T/C,"dose: 12.5 mg/kg/injection, schedule: Q01DX009 (ip), vehicle: saline",92 % of control
same,T/C,"dose: 25.0 mg/kg/injection, schedule: Q01DX009 (ip), vehicle: saline",89 % of control
same,T/C,[1],101 % of control and 90 % of control
O=C1CC(c2ccccc2)C(=O)N1CN1CCOCC1 (stereo not drawn),T/C,[2],110 % of control
same,T/C,[3],97 % of control
same,T/C,[4],97 % of control
CN(C)/C(=C(\CBr)C(=O)c1ccc(-c2ccccc2)cc1)c1ccccc1,T/C,"dose: 12.5 mg/kg/injection, schedule: Q01DX005 (ip), vehicle: Klucel (hydroxypropylcellulose) (HPC)",108 % of control
same,T/C,"dose: 25.0 mg/kg/injection, schedule: Q01DX005 (ip), vehicle: Klucel (hydroxypropylcellulose) (HPC)",105 % of control
same,T/C,[2],105 % of control and 107 % of control
O=C(O)CCOc1cccc(OCCC(=O)O)c1,T/C,[2],102 % of control
same,T/C,[3],98 % of control
same,T/C,[4],99 % of control
Cc1cc[c]([Sb]2[O]C(CO)C(C(O)C(O)C(=O)O)[O]2)cc1 (stereo not drawn),T/C,"dose: 25.0 mg/kg/injection, schedule: Q01DX005 (ip), vehicle: saline",101 % of control and 104 % of control and 105 % of control
O=C1c2ccccc2CCC1Cl (stereo not drawn),T/C,"dose: 1.56 mg/kg/injection, schedule: Q01DX009 (ip), vehicle: DMSO",100 % of control
same,T/C,"dose: 3.12 mg/kg/injection, schedule: Q01DX009 (ip), vehicle: DMSO",103 % of control
same,T/C,"dose: 6.25 mg/kg/injection, schedule: Q01DX009 (ip), vehicle: DMSO",94 % of control and 97 % of control
same,T/C,"dose: 12.5 mg/kg/injection, schedule: Q01DX009 (ip), vehicle: DMSO",102 % of control
same,T/C,"dose: 25.0 mg/kg/injection, schedule: Q01DX009 (ip), vehicle: DMSO",94 % of control
Cc1cc2nc(C(C)C(=O)c3ccc(Cl)cc3)c(=O)[nH]c2cc1C (stereo not drawn),T/C,"dose: 1.88 mg/kg/injection, schedule: Q01DX005 (ip), vehicle: saline with Tween-80",100 % of control
same,T/C,"dose: 3.75 mg/kg/injection, schedule: Q01DX005 (ip), vehicle: saline with Tween-80",104 % of control
same,T/C,"dose: 7.5 mg/kg/injection, schedule: Q01DX005 (ip), vehicle: saline with Tween-80",86 % of control
C[As](C)SCCC(CCCCC(=O)O)S[As](C)C (stereo not drawn),T/C,[5],109 % of control and 111 % of control
same,T/C,[6],122 % of control
same,T/C,"dose: 25.0 mg/kg/injection, schedule: Q04DX003 (ip), vehicle: saline with Tween-80",106 % of control
same,T/C,[7],100 % of control
same,T/C,[8],97 % of control
same,T/C,[9],108 % of control
CN(C(=O)c1cc2c(cc1Br)OCO2)c1cccc2ccccc12,T/C,"dose: 12.5 mg/kg/injection, schedule: Q01DX009 (ip), vehicle: distilled water + Tween-80",98 % of control
same,T/C,"dose: 25.0 mg/kg/injection, schedule: Q01DX009 (ip), vehicle: distilled water + Tween-80",103 % of control
same,T/C,"dose: 50.0 mg/kg/injection, schedule: Q01DX009 (ip), vehicle: distilled water + Tween-80",103 % of control
same,T/C,"dose: 100.0 mg/kg/injection, schedule: Q01DX009 (ip), vehicle: distilled water + Tween-80",95 % of control
same,T/C,"dose: 200.0 mg/kg/injection, schedule: Q01DX009 (ip), vehicle: distilled water + Tween-80",100 % of control
CN(C)CCOC(=O)Nc1cc(Cl)cc(Cl)c1,T/C,[10],103 % of control
same,T/C,[11],103 % of control
O=C(O)c1cccc(C(=O)O)c1Sc1ccc(Cl)cc1,T/C,"dose: 100.0 mg/kg/injection, schedule: Q04DX002 (ip), vehicle: saline with Tween-80",100 % of control
same,T/C,"dose: 200.0 mg/kg/injection, schedule: Q04DX002 (ip), vehicle: saline with Tween-80",105 % of control
same,T/C,"dose: 400.0 mg/kg/injection, schedule: Q04DX002 (ip), vehicle: saline with Tween-80",100 % of control
CSC(=S)N/N=C(C)\C=N/Nc1ccccc1,T/C,"dose: 100.0 mg/kg/injection, schedule: Q04DX002 (ip), vehicle: saline",101 % of control
same,T/C,"dose: 200.0 mg/kg/injection, schedule: Q04DX002 (ip), vehicle: saline",106 % of control
same,T/C,"dose: 400.0 mg/kg/injection, schedule: Q04DX002 (ip), vehicle: saline",96 % of control
COC(=S)NCCn1c([N+](=O)[O-])cnc1C,T/C,"dose: 100.0 mg/kg/injection, schedule: Q01DX001 (ip), vehicle: saline with Tween-80",110 % of control
same,T/C,"dose: 200.0 mg/kg/injection, schedule: Q01DX001 (ip), vehicle: saline with Tween-80",100 % of control
same,T/C,"dose: 400.0 mg/kg/injection, schedule: Q01DX001 (ip), vehicle: saline with Tween-80",108 % of control
CC(C)=NOCc1ccccc1,T/C,"dose: 2.5 mg/kg/injection, schedule: Q01DX009 (ip), vehicle: Klucel (hydroxypropylcellulose) (HPC)",119 % of control
same,T/C,"dose: 5.0 mg/kg/injection, schedule: Q01DX009 (ip), vehicle: Klucel (hydroxypropylcellulose) (HPC)",120 % of control
same,T/C,"dose: 10.0 mg/kg/injection, schedule: Q01DX009 (ip), vehicle: Klucel (hydroxypropylcellulose) (HPC)",117 % of control
same,T/C,[7],94 % of control
same,T/C,"dose: 100.0 mg/kg/injection, schedule: Q01DX009 (ip), vehicle: Klucel (hydroxypropylcellulose) (HPC)",98 % of control
Cc1ccccc1NC(=O)Oc1ccc(Cl)cc1C(=O)c1ccccc1,T/C,[10],100 % of control
same,T/C,[11],109 % of control
same,T/C,"dose: 240.0 mg/kg/injection, schedule: Q01DX005 (ip), vehicle: saline with Tween-80",103 % of control
CCSC(=N)N=Nc1ccc(O)cc1,T/C,"dose: 25.0 mg/kg/injection, schedule: Q01DX009 (ip), vehicle: saline with Tween-80",100 % of control
same,T/C,"dose: 50.0 mg/kg/injection, schedule: Q01DX009 (ip), vehicle: saline with Tween-80",99 % of control
same,T/C,"dose: 100.0 mg/kg/injection, schedule: Q01DX009 (ip), vehicle: saline with Tween-80",99 % of control
same,T/C,"dose: 200.0 mg/kg/injection, schedule: Q01DX009 (ip), vehicle: saline with Tween-80",93 % of control
S=C(Nc1ccc2c(c1)OCO2)SCc1ccc(Cl)c(Cl)c1,T/C,[5],91 % of control
same,T/C,[6],105 % of control
same,T/C,[7],107 % of control
same,T/C,[1],106 % of control
same,T/C,"dose: 50.0 mg/kg/injection, schedule: Q01DX009 (ip), vehicle: suspension in saline",103 % of control
same,T/C,"dose: 100.0 mg/kg/injection, schedule: Q01DX009 (ip), vehicle: saline",108 % of control
same,T/C,"dose: 100.0 mg/kg/injection, schedule: Q01DX009 (ip), vehicle: suspension in saline",93 % of control
same,T/C,"dose: 200.0 mg/kg/injection, schedule: Q01DX009 (ip), vehicle: saline",118 % of control
same,T/C,"dose: 200.0 mg/kg/injection, schedule: Q01DX009 (ip), vehicle: suspension in saline",98 % of control
O=C1c2ccccc2-c2cccc3ccnc1c23,T/C,"dose: 8.0 mg/kg/injection, schedule: Q01DX009 (ip), vehicle: Klucel (hydroxypropylcellulose) (HPC)",103 % of control
same,T/C,"dose: 16.0 mg/kg/injection, schedule: Q01DX009 (ip), vehicle: Klucel (hydroxypropylcellulose) (HPC)",101 % of control
same,T/C,"dose: 32.0 mg/kg/injection, schedule: Q01DX009 (ip), vehicle: Klucel (hydroxypropylcellulose) (HPC)",103 % of control
same,T/C,"dose: 64.0 mg/kg/injection, schedule: Q01DX009 (ip), vehicle: Klucel (hydroxypropylcellulose) (HPC)",100 % of control
CCOC(=O)COc1ccc(CC)cc1Cc1ccc(OC)cc1,T/C,"dose: 50.0 mg/kg/injection, schedule: Q01DX005 (ip), vehicle: saline with Tween-80",97 % of control
same,T/C,"dose: 100.0 mg/kg/injection, schedule: Q01DX005 (ip), vehicle: saline with Tween-80",111 % of control
same,T/C,"dose: 200.0 mg/kg/injection, schedule: Q01DX005 (ip), vehicle: saline with Tween-80",111 % of control
CN(C)[C@@H]1C(=O)C(C(=O)NCN(CCCl)CCCl)=C(O)[C@@]2(O)C(=O)C3=C(O)c4c(O)cccc4[C@@](C)(O)[C@H]3C[C@@H]12,T/C,"dose: 33.0 mg/kg/injection, schedule: Q04DX003 (ip), vehicle: saline with Tween-80",159 % of control
same,T/C,"dose: 44.0 mg/kg/injection, schedule: Q04DX003 (ip), vehicle: saline",154 % of control
same,T/C,[8],158 % of control and 172 % of control
same,T/C,"dose: 66.0 mg/kg/injection, schedule: Q04DX003 (ip), vehicle: saline",181 % of control
same,T/C,"dose: 75.0 mg/kg/injection, schedule: Q04DX003 (ip), vehicle: saline with Tween-80",168 % of control
same,T/C,[9],100 % of control
same,T/C,"dose: 100.0 mg/kg/injection, schedule: Q04DX003 (ip), vehicle: saline",209 % of control
